Source: US20040049799A1, “Method for screening agents capable of treating obesity” (priority 2000, published 2004)

System: messenger for the SPARC protein in the adipose tissue
Test: expression of the messenger for the SPARC protein in adipose tissue after insulin injection
Assay type: in vivo
Conditions: injected into mice

Substance: insulin
- expression of the messenger for the SPARC protein in the adipose tissue: increases the expression of the messenger for the SPARC protein
